Values of other authors as cited in US7534771B2, “Tricyclic-nucleoside prodrugs for treating viral infections” (SmithKline Beecham Corporation, priority 2005, dated 2009).

Conditions: patients treated at currently recommended doses

In the case of `NC(=O)c1ncn([C@@H]2O[C@H](CO)[C@@H](O)[C@H]2O)n1` [Ribavirin], the “patients with significant hemolysis” value is listed as 10-20%.
